Marks after values point to notes of the source that are not given here.
What was measured:
Type in all cases: cell-based
[1] = system: human preadipocytes of passage R7; experiment: Adipocyte phenotype restoration in artificially aged (passage R7) preadipocytes, protocol 3; conditions: protocol 3: product present during culture and differentiation; 10 μg/ml on a dry extract basis
Source text: (§1) The term “passage” or “subculturing” or “amplification” denotes here the operation, known to those skilled in the art, consisting in amplifying the cells in question successively by means of culture cycles. Thus, the term “preadipocytes of passage RO” denotes the preadipocytes which have undergone no passage operation as defined above. The term “preadipocytes of passage R1” denotes the preadipocytes which have undergone a single passage operation as defined above. The term “preadipocytes of passage R7” denotes the preadipocytes which have undergone 7 successive passage operations under identical operating conditions.
(§2) • i) Human preadipocytes of passage R1 were cultured in monolayer for 5 days until confluence. […]
The effect of the N-hexadecanoyl isoleucine on human preadipocytes of passage R7 is evaluated according to a variant of the procedure of protocol 2, the first step of which consists in culturing the human preadipocytes of passage R7 in a monolayer for 5 days until confluence in the presence of N-hexadecanoyl isoleucine. […]

[2] = system: human preadipocytes of passage R7; experiment: Adipocyte phenotype restoration in artificially aged (passage R7) preadipocytes, protocol 1 (Oil-Red-O, OD 540 nm); conditions: protocol 1: product present during differentiation; 10 μg/ml on a dry extract basis
Source text: as §1, §2
The optical density thus measured for the young control is denoted “ODR1”. […]

[3] = system: human preadipocytes of passage R7; experiment: Adipocyte phenotype restoration in artificially aged (passage R7) preadipocytes, protocol 2; conditions: protocol 2: product present during 5-day culture until confluence; 10 μg/ml on a dry extract basis
Source text: as §1, §2
The steps of sections a) and b) of protocol 1 are carried out using human preadipocytes of passage R1 and human preadipocytes of passage R7 so as to obtain a “young” control and an “aged” control and the associated optical densities ODR1 and ODR7. The effect of the N-hexadecanoyl isoleucine on human preadipocytes of passage R7 is evaluated according to a variant of the procedure of protocol 1, the first step of which consists in culturing the human preadipocytes of passage R7 in a monolayer for 5 days until confluence in the presence of N-hexadecanoyl isoleucine. […]

[4] = system: normal human preadipocytes; experiment: Differentiation of normal human preadipocytes in depleted differentiation medium (Bodipy lipid droplet labeling, image analysis); conditions: 15 days
Description: Normal human preadipocytes resulting from abdominal surgical waste from a donor were cultured in monolayer until confluence in the presence of a culture medium comprising PBM-2 (Preadipocyte Basal Medium-2) supplied by the company Lonza, an amount of 10% by volume of FBS (Fetal Bovine Serum) for 100% of the volume of the culture medium, L-glutamine and gentamicin.
Their differentiation into adipocytes was induced by adding a “depleted” differentiation medium comprising a mixture of insulin, dexamethasone, IBMX (isobutyl methyl xanthine) and indomethacin, and used at a dilution rate of 1/10th with respect to a “standard” differentiation medium.
A differentiation phase is also carried out on human preadipocytes as described above and cultured in monolayers as described above, but in the presence of a “standard” differentiation medium, namely a nondiluted mixture of insulin, dexamethasone, IBMX (IsoButyl Methyl Xanthine) and indomethacin, so as to obtain a “control differentiated in standard medium”.
Once the maturity of the preadipocytes was reached, namely after 15 days following the induction described above, the cultures were rinsed with a PBS (Phosphate Buffered Saline) buffer and the intracytoplasmic lipid vesicles were labeled using a specific viable fluorescent probe, Bodipy (500 μg/ml). The nuclei of the differentiated preadipocytes were also labeled using a Hoechst reagent (bisbenzimide), which is also fluorescent, at a concentration of 2 μg/ml, sold by the company Sigma.
Three photographs per well were taken using a Zeiss Axiovert™ 25 inverted epifluorescence microscope fitted with an ×20 objective.
For each test of products tested, including controls, the images obtained with the inverted epifluorescence microscope are analyzed using the Lucia software, allowing quantification of the Bodipy fluorescent label, in order to carry out: • a measurement of the lipid droplet surface area (Sd), • a measurement of the number of differentiated cells (Nc), and • a measurement of the number of total cell nuclei (Nnc).
For each test, the level of adipocyte differentiation (D) is then calculated by relating the lipid droplet surface area to the number of total nuclei according to the following formula: (D)=(lipid droplet surface area)/(number of total cell nuclei).
The following will thus be calculated: • the level of adipocyte differentiation of the control differentiated in depleted medium (subsequently denoted Ddm); • the level of adipocyte differentiation of the control differentiated in standard or complete medium (subsequently denoted Dcm); • the level of adipocyte differentiation of the products tested (N-hexadecanoyl isoleucine, hexadecanoic acid, isoleucine, hexadecanoic acid/isoleucine mixture in a ratio by weight of 65/35) (subsequently denoted Dpt).
For each product tested, the following are then calculated:
a) the percentage restoration of adipocyte differentiation (subsequently denoted RAD) according to the following formula: RAD=[(Dpt−Ddm)/(Dcm−Ddm)]×100
b) the adipocyte surface area (AS) according to the following formula: (AS)=[(lipid droplet surface area Sd)/(number of differentiated cells Nc)]×100
c) the percentage increase in adipocyte surface area (subsequently denoted IAS) relative to the control treated with depleted medium according to the formula: IAS=[adipocyte surface area of the product (ASpt)/adipocyte surface area of the control treated with the depleted medium (ASdm)]×100.
A statistical analysis is then carried out on the data (D) and (AS) using a two-sided Student's test assuming unequal variances. Thus, the population of each of the experimental conditions tested for the parameters (D) and (AS) is compared with the population of the condition of differentiation in the presence of the depleted differentiation medium. An error threshold (p) is set at 5%.

[5] = 1.7 μg/ml on a dry extract basis

Structure (SMILES)	PRR (phenotype restoration rate) [1] [%*]	PRR (phenotype restoration rate) [2] [%*]	PRR (phenotype restoration rate) [3] [%*]	IAS (percentage increase in adipocyte surface area relative to control in depleted medium = 100%) [4, 5] [%]	RAD (percentage restoration of adipocyte differentiation) [4, 5] [%]	IAS (percentage increase in adipocyte surface area relative to control in depleted medium = 100%) ([4]; 3.3 μg/ml)	RAD (percentage restoration of adipocyte differentiation) ([4]; 3.3 μg/ml) [%]	IAS (percentage increase in adipocyte surface area relative to control in depleted medium = 100%) ([4]; 6.5 μg/ml) [%]	RAD (percentage restoration of adipocyte differentiation) ([4]; 6.5 μg/ml) [%]
CCCCCCCCCCCCCCCC(=O)N[C@H](C(=O)O)[C@@H](C)CC [N-hexadecanoyl isoleucine]	30	16	17						
CC[C@H](C)[C@H](N)C(=O)O [Isoleucine, isoleucine]				57	<10	117%	<10		
CCCCCCCCCCCCCCCC(=O)O [Hexadecanoic acid, hexadecanoic acid]						41%*	<10	62	<10
